Experimental data reported in US6525077B2, “Cyanoguanidine prodrugs” (Leo Pharmaceutical Products Ltd. A/S, priority 2000, dated 2003).
≈ marks a conversion by molar mass, not a printed value.

Assays:
Solubility in water = format: physicochemical
Description: The solubility in water of compounds of the present invention was determined by shaking the compounds in water for one hour at room temperature followed by filtration and determination of the concentration of the compound in the filtrate by HPLC. […]

[1] = system: human lung and breast cancer cell lines; details: cited from earlier work
[2] = system: human lung cancer tumour xenograft; details: cited from earlier work
[3] = system: normal human endothelial cells; details: cited from earlier work
human tumour cells = details: nude mice transplanted with human tumour cells, also paclitaxel-resistant tumour cells; cited from earlier work

SMILES	solubility at 1 h (Solubility in water; thermodynamic from solid, shaken in water for one hour at room temperature, filtration, filtrate by HPLC) [µg/mL]	solubility (in words) (Solubility in water; water)	antiproliferative activity in vitro [1]	antitumour activity in the nude mouse model [2]	antiproliferative activity on normal human endothelial cells [3]	antitumour activity in vivo (human tumour cells)	Solubility in water (Solubility in water) [mg/mL]
N#CNC(=Nc1ccncc1)NCCCCCCOc1ccc(Cl)cc1 [N-(6-(4-chlorophenoxy)-hexyl)-N′-cyano-N″-(4-pyridyl)-guanidine]	0.2 (≈ 0.538 µM)	for all practical purposes insoluble	high antiproliferative activity	potent antitumour activity	considerably less antiproliferative activity	substantial antitumour activity	–
COCCOCCOCCOCC(=O)OC[n+]1ccc(NC(=NC#N)NCCCCCCOc2ccc(Cl)cc2)cc1.[Cl-] [Example 8, 1-[2-(2-(2-Methoxyethoxy)-ethoxy)-ethoxy-acetoxymethyl]-4-[N′-cyano-N″-(6-(4-chlorophenoxy)-hexyl)-N-guanidino]-pyridinium chloride]	–	–	–	–	–	–	>50
COCCOCCOCCOCCOC(=O)OC[n+]1ccc(NC(=NC#N)NCCCCCCOc2ccc(Cl)cc2)cc1.[Cl-] [Example 9, 1-[2-(2-(2-(2-Methoxyethoxy)-ethoxy)-ethoxy)-ethoxy-carbonyloxymethyl]-4-[N′-cyano-N″-(6-(4-chlorophenoxy)-hexyl)-N-guanidino]-pyridinium chloride]	–	–	–	–	–	–	>50
